Experiments:
bESCs [1] = assay: Matrix coating supporting expansion of bESCs in feeder-free conditions; type: cell-based, bovine; details: for bESC growth on pre-coated plate (FIG. 2): Method 1 bESCs, medium with 2.5 μM IWR-1 (bESC medium 1)
From the text: After co-culture with MEFs, bESCs were collected using TrypLE treatment and cultured in 6-well plastic plates in feeder-free conditions for expansion. […] However, collagen pre-coated plates can be used to support bESC growth in bESC medium 2.
To establish feeder-free conditions for bESCs, bESCs were collected from coculture with MEFs using TrypLE treatment and transferred into 6-well plastic plates precoated Vitronectin XF, collagen, or Matrigel®.
Vitronectin Coating Preparation: A frozen vial of Vitronectin XF (2 mL) from Stem Cell Technology (Cat #07180) was thawed and mixed with 50 mL of DPBS and distributed into 6 of 6-well plates (˜1.4 mL/well) sealed with Parafilm and kept wrapped in foil at +4° C. for not more than 2 weeks. Before use, the plate was kept at +37° C. for at least 1 hr. Immediately after aspiration excess of liquid, bESCs in culture medium were added.
Collagen Coating Preparation: Collagen (Sigma, Cat #5162-1G) was dissolved in distilled water and sterilized by filtration using 0.22 um filter. Collagen solution aliquoted into 70 μL PCR tubes and kept at −80° C. before use. For coating wells, the content of tube was transferred into 50 mL DPBS, carefully mixed, and distributed into 6 of 6 wells plate, approximately 1.3-1.4 mL/well. Plates sealed with Parafilm and kept at RT not more than 2 wecks.
Matrigel® Coating Preparation: Frozen stock (˜0.5 mL) of Matrigel® needs was thaw on ice and diluted in 50 mL of cold DPBS (+4° C.). Approximately 1.2-1.3 mL (9 μg/cm^2) of diluted Matrigel® solution was added to each well. After 1 hour incubation at +37° C. excess Matrigel® was removed and wells washed with warm DPBS.

bESCs [2] = assay: bESC growth in mTeSR medium with DAPT and IWR-1 (Medium 3 / Method 3); type: cell-based, bovine
Method: To test whether DAPT can be used for bESC cultures, the growth of bESC was tested in mTeSR medium with different concentrations of DAPT and IWR-1. […] Addition of IWR-1 to DAPT had no effect on bESCs. (FIG. 3, Table 6; bESC Medium 3/Method 3). mTeSR with 10 μM DAPT alone supported bESC cultures for more than 7 passages.
In Method 3, bESC were cultured in bESC medium 3 composed of TeSR Plus (WiCell) supplemented with […] of gamma γ-secretase inhibitor DAPT on collagen or a vitronectin-coated 6-well plate and were passage using PBS-EDTA. Following aspiration of bESC growth media, 0.7-1.2 mL of PBS-EDTA solution was added to each well of 6 well plate. After incubation 5 to 6 min at +37° C., PBS-EDTA was carefully removed by aspiration and 1-1.2 mL of cold (+1-+4° C.) TeSR medium was added, cells were suspended by pipette filtered via strainer (70 mkM), counted and an aliquot of 100,000 to 150,000 cell/well for 6 wells plate was taken and cells were centrifuged at 100 g for 5 minutes. Cell pellets were resuspended in 9 mL growth medium and plated on a collagen or vitronectin coated 6-well plate. Cells grew for 5-7 days until they formed large colonies. PBS-EDTA solution was prepared as described above.

bESCs [3] = assay: bESC growth in Medium 1 with alternative Wnt inhibitors (Medium 1a/1b) on vitronectin, feeder-free; type: cell-based, bovine
Method: 1) Wnt-inhibitors (Medium la and Medium 1b): In prior studies, mTeSR Plus medium supplemented with 20 ng/ml human FGF2 and 2.5 μM IWR1 was used for bESC cultures (Saito et al. 1992; Stice et al. 1996). […] Nat Chem Biol 11, 973-980 (2015); and Mallinger et al., Discovery of potent, orally bioavailable, small-molecule inhibitors of WNT signaling from a cell-based pathway screen.
bESC growth in Medium 1 was tested with concentrations of 1 nM, 5 nM, or 10 nM iCRT3 (Medium 1a).
In another set of experiments, bESC growth in Medium 1 was tested with concentrations of 1 nM, 5 nM, 75 nM, or 150 nM CCT251545 (Medium 1b).
In Method 1, bESC colonies growing on Vitronectin were passaged by using TrypLe. Following medium aspiration 0.5-0.8 mL of TrypLE was added to each well of 6 well plate. Cells incubated for 3.5 min at 37.2° C. Then TrypLE has been carefully removed by aspiration and 1-1.2 mL of cold (+1-+4° C.) TeSRr medium was added, cells were suspended by pipette filtered via strainer (70 mkM), counted and an aliquot of 70,000 to 100,000 cell/well for 6 wells plate was taken and cells centrifuged at 100 g for 5 minutes. The cell pellet was resuspended in 9 mL growth medium and seeded on coated by vitronectin 6-well plate.

[4] = tested on: bovine embryo derived blastocysts; assay: Generation of bESC lines from blastocysts on different coatings; type: cell-based; details: Method 1
Method: bESCs were generated from IVM/IVF bovine embryo derived blastocysts on 6th to 7th days post-fertilization. Briefly, bovine embryos were obtained from an outside source and cultured in TeSR Plus medium supplemented with 15% fetal bovine serum from 24 to 72 hours to get an expanded blastocyst stage. After that zona pellucida was removed by treating embryos with pronase. Embryos with stripped zona pellucida were plated on irradiated MEFs (obtained from WICell) in a 4-well IVF plate and cultured according to Method 1 or Method 2. Following expansion of inner cell mass after culture for 2-3 weeks on MEFs, cells were disaggregated by TrypLE, and bESC were generated from individual blastocysts by two Methods (Method 1 or Method 2) to maximize efficiency.
To determine if feeder-free conditions were suitable for maximizing generation of bESCs from inner cell mass, individual blastocysts were placed into culture plates according to Method 1 or Method 2 with coating conditions modified as shown in Table 1. Coating conditions using MEF feeder cells or vitronectin (feeder-free) were tested. In the first set, 11 bovine embryos were used to establish 4 bESC lines, 3 of which were differentiated and tossed after passage 5-7. Only one cell line remained undifferentiated and maintained expression of bESC pluripotency factors Oct4 and Sox2. […]

[5] = feeder-free, bESC medium 1 or 2
[6] = 1 nM inhibitor in Medium 1, vitronectin

What does the source list for collagen?
bESC growth on pre-coated plate (FIG. 2) (bESCs [1]): supports bESC cultures; bESC adherence to matrix (bESCs [1]; bESC medium 1): very lightly and weak; bESC colony formation and growth on matrix (bESCs [1]; bESC medium 2): able to form colonies and grow; bESC morphology on matrix (bESCs [1]; [5]): maintained a typical bESC morphology

O=C(Nc1cccc2cccnc12)c1ccc(N2C(=O)[C@@H]3[C@H](C2=O)[C@@H]2C=C[C@H]3C2)cc1 [IWR-1] was tested. Which “effect on bESCs of addition to DAPT” value (bESCs [2]; IWR-1 added to DAPT in mTeSR medium) did it give?
Its value is “no effect”.

How did the “growth of bESCs” value (bESCs [2]; DAPT alone at 5-10 μM in mTeSR medium) turn out when C[C@H](NC(=O)Cc1cc(F)cc(F)c1)C(=O)NC(C(=O)OC(C)(C)C)c1ccccc1 (some centres unmarked) [DAPT] was run?
Its value is “sufficient to support growth of bESCs”.

And the “passages of supported bESC cultures” value (bESCs [2]; mTeSR with 10 μM DAPT alone)?
Its value is “more than 7 passages”.

For Cn1cc(-c2ccc(-c3cncc(Cl)c3N3CCC4(CCNC4=O)CC3)cc2)cn1 [CCT251545], which “bESC growth on vitronectin” value (bESCs [3]; 1 nM inhibitor in Medium 1) is on record?
Its value is “did not support bESC growth”.

What about the “passages after which cells died” value (bESCs [3]; [6]) of the same molecule?
Its value is 2-3 passages.

And the “bESC growth on vitronectin” value (bESCs [3]; 5 nM inhibitor in Medium 1)?
Its value is “did not support bESC growth”.

And the “bESC growth on vitronectin” value (bESCs [3]; 75 nM inhibitor in Medium 1)?
Its value is “did not support bESC growth”.

What about the “bESC growth with typical morphology and expression of Sox2 and Oct4” value (bESCs [3]; 150 nM inhibitor in Medium 1) of the same molecule?
Its value is “supported bESC growth”.

And the “passages of supported bESC growth” value (bESCs [3]; 150 nM inhibitor in Medium 1)?
The value was “more than 7 passages”.

How did the “bESC growth on pre-coated plate (FIG. 2)” value (bESCs [1]) turn out when gelatin was run?
Its value is “do not support the growth of bESCs”.

What about the “bESC attachment to pre-coated plates” value (bESCs [1]; [5]) of the same molecule?
Its value is “attached”.

And the “bESC growth on pre-coated plates” value (bESCs [1]; [5])?
Its value is “did not grow”.

For CCc1ccc(-c2nc(CSCC(=O)NCCc3ccccc3)c(C)o2)cc1 [iCRT3], which “bESC growth on vitronectin” value (bESCs [3]; 1 nM inhibitor in Medium 1) is on record?
The value was “did not support bESC growth”.

What about the “passages after which cells died” value (bESCs [3]; [6]) of the same molecule?
The value was 1-2 passages.

And the “bESC growth on vitronectin” value (bESCs [3]; 5 nM inhibitor in Medium 1)?
The value was “did not support bESC growth”.

And the “passages after which cells died” value (bESCs [3]; 5 nM inhibitor in Medium 1, vitronectin)?
The value was 2-4 passages.

What about the “bESC growth with typical morphology and expression of Sox2 and Oct4” value (bESCs [3]; 10 nM inhibitor in Medium 1) of the same molecule?
Its value is “supported bESC growth”.

What about the “passages of supported bESC growth” value (bESCs [3]; 10 nM inhibitor in Medium 1) of the same molecule?
Its value is “more than 10 passages”.

B1: vitronectin + Cover Glass on the top: vitronectin coating with cover glass on top (protein, UniProt P04004 20-478, looked up)
Vitronectin: DQESCKGRCTEGFNVDKKCQCDELCSYYQSCCTDYTAECKPQVTRGDVFTMPEDEYTVYDDGEEKNNATVHEQVGGPSLTSDLQAQSKGNPEQTPVLKPEEEAPAPEVGASKPEGIDSRPETLHPGRPQPPAEEELCSGKPFDAFTDLKNGSLFAFRGQYCYELDEKAVRPGYPKLIRDVWGIEGPIDAAFTRINCQGKTYLFKGSQYWRFEDGVLDPDYPRNISDGFDGIPDNVDAALALPAHSYSGRERVYFFKGKQYWEYQFQHQPSQEECEGSSLSAVFEHFAMMQRDSWEDIFELLFWGRTSAGTRQPQFISRDWHGVPGQVDAAMAGRIYISGMAPRPSLAKKQRFRHRNRKGYRSQRGHSRGRNQNSRRPSRATWLSLFSSEESNLGANNYDDYRMDWLVPATCEPIQSVFFFSGDKYYRVNLRTRRVDTVDPPYPRSIAQYWLGCPAPGHL
How did the “Number of bESC lines generated” value [4] turn out when B1 was run?
Its value is 0.
